The record followed here is patent US20090298891A1, “Methods of Treating or Preventing Cancer Using Pyridine Carboxaldehyde Pyridine Thiosemicarbazone Radiosensitizing Agents” (GOVERNMENT OF THE US, AS REPRESENTED BY THE SECRETADY OF …, priority 2005, published 2009).

The subject of one experiment is U251 cells. The experiment can be described thus: Cell cycle phase analysis (flow cytometry). The experiment is classed as cell-based, human. Particulars: 16 hours of Triapine exposure (5 μM). As to the method: Cell Cycle Phase Analysis. Cell cycle phase distribution was analyzed using flow cytometry. Cells were seeded in T75 flasks at subconfluent density and exposed to Triapine, or vehicle for 16 hours, at which time cells were fixated and stained with propidium iodide for flow cytometry analysis at the Clinical Services Program at the National Cancer Institute-Frederick. A two-tailed, paired t-test was performed on the data from the replicated analysis.

For experiment [1], the system named is PSN1 (pancreatic carcinoma) cell line. The experiment can be described thus: Clonogenic assay, PSN1. The experiment is classed as cell-based, human. As to the method:
(§1) Cell lines and treatment. Three human tumor cell lines were evaluated: a glioma (U251), a pancreatic carcinoma (PSN1) and a prostate carcinoma (DU145), each was obtained from the Developmental Therapeutics Program, DCTD, NCI. The cell lines were grown in RPMI 1640 (Life Technologies, Rockville, Md.) containing […] (5 mM) and 5% FBS and maintained at 37° C. in an atmosphere of 5% CO2 and 95% room air. Triapine (3-amino-2-carboxaldehyde-pyridine thiosemicarbazone), provided by Vion Pharmaceuticals of New Haven, Conn., was dissolved in dimethylsulfoxide to a stock concentration of 10 mM and stored at −20° C. Cultures were irradiated using a Pantak (Solon, Ohio) X-ray source at a dose rate of 1.55 Gy/minute.
(§2) Clonogenic assay. Cell cultures were trypsinized to generate a single cell suspension and a specified number of cells were seeded into each well of 6-well tissue culture plates. In the first experiment, drug or vehicle control was, added at specified concentrations, and the plates were irradiated 16 hours later. Immediately after irradiation, the growth media was aspirated, and fresh media was added. In the second experiment, cells were seeded, and irradiated 6 hours after seeding. Immediately after irradiation, the cells were treated with the specified concentration of drug. After 16 hours of exposure, drug was aspirated, and replaced with fresh media. Ten to twelve days after seeding, colonies were stained with crystal violet, and the number of colonies containing at least 50 cells was determined and the surviving fractions were calculated. Survival curves were generated after normalizing for the cytotoxicity generated by drug alone. Data presented are the mean±SEM from at least three independent experiments. Radiation dose enhancement factors (DEFs) represent the ratio of radiation dose required to achieve 10% survival in the control cells and the drug-treated cells.

A further experiment has as its system PSN1 tumors. In words: In vivo tumor growth delay assay, PSN1 xenografts. More on the design: species or system mice. As to the method: (§3) In Vivo Tumor Growth Delay Assay. Male 6 week old athymic nude mice (NCr nu/nu) were used in these studies. Mice, housed in filter-topped cages, were provided autoclaved feed and hyperchlorinated water ad libitum. U251 or PSN1 tumor cells were implanted subcutaneously in the hind leg. Irradiation was performed using a Pantak (Solon, Ohio) irradiator with animals restrained in a custom lead jig, which allowed for the localized irradiation of tumors at the base of the tail. When tumors reached 177 mm^3 (7×7 mm) Triapine (30-60 mg/kg) was delivered by intraperitoneal injection and 6 h later tumors were irradiated with a single dose of 4 or 5 Gy. To obtain growth curves, perpendicular diameter measurements of each tumor were collected every 3 days with calipers, and the volumes were calculated using the formula (L×W×W)/2. Tumors were followed until the group's tumors were greater than 1500 mm^3. Specific tumor growth delay was calculated as the number of days for the treated tumors to grow to 1400 mm^3 minus the number of days for the control group to reach the same size. Each experimental group contained 10 mice and the untreated group contained 15 mice. All animal studies were conducted in accordance with the principles and procedures outlined in the U.S.P.H.S. Guide for the Care and Use of Laboratory Animals in an AAALAC-approved facility under an approved animal protocol.
In vivo activity of Triapine in conjunction with radiation was determined through growth delays in mice with subcutaneous human tumor xenografts. Based on the above described in vitro results, xenografts of PSN1 and U251 were evaluated in vivo. Triapine (40 mg/kg) was given 6 hours prior to a single radiation dose (4 or 5 Gy). After 3 volumetric doublings of the PSN1 tumors, Triapine alone yielded a 1.6 day growth delay, and radiation caused a 9.8 day growth delay. […] See, FIG. 8 (U251) and FIG. 9 (PSN1) for a graph of tumor growth delay data.

Experiment [2] has as its system U251 (human glioma) cell line. The experiment can be described thus: Clonogenic assay, U251. Type of experiment: cell-based. On the procedure: as §1, §2
Experiment [3] relates to DU145 (prostate carcinoma) cell line. The experiment can be described thus: Clonogenic assay, DU145. The experiment is classed as cell-based, human. On the procedure: as §1, §2
In another experiment the test system is U251 tumors. In words: In vivo tumor growth delay assay, U251 xenografts. On the set-up: species or system mice. The settings on record: combination of Triapine and radiation. As to the method:
as §3, with “Each experimental group contained 10 mice and the untreated group contained 15 mice. All animal studies were conducted in accordance with the principles and procedures outlined in the U.S.P.H.S. Guide for the Care and Use of Laboratory Animals in an AAALAC-approved facility under an approved animal protocol.” left out
In vivo activity of Triapine in conjunction with radiation was determined through growth delays in mice with subcutaneous human tumor xenografts. Based on the above described in vitro results, xenografts of PSN1 and U251 were evaluated in vivo. […]

Experiment [4] concerns DNA synthesis activity in U251 cells. In words: DNA synthesis assay (BrdU incorporation). Type of experiment: cell-based, human. The settings on record: after 16 hours of Triapine exposure. As to the method:
DNA Synthesis Assay. DNA synthesis was quantified as an indirect measure of ribonucleotide reductase activity. A 5-bromo-2′-deoxyuridine (BrdU) incorporation assay kit (#1669915) produced by Roche Applied Science (Mannheim, Germany) was used. Cells were seeded in wells of a black wall 96-well plate and allowed to incubate for 24 hours. Drug was added, and after 16 hours of exposure, 10 μM BrdU pulses were added hourly for 2 hours, according to manufacturer's instructions. After fixation, an anti-BrdU peroxidase antibody conjugate was applied for 90 minutes at room temperature. The conjugate was then rinsed three times, and luminol was added. Chemiluminescence was detected with a Wallac 1420 multilabel counter (Perkin Elmer Life Sciences, Turku, Finland), and data was exported for off-line analysis. Triplicate samples were run for three independent experiments; data is presented as the mean of three experiments±SEM.

On to `NC(=S)N/N=C/c1ncccc1N` [Triapine, 3-amino-2-carboxaldehyde-pyridine thiosemicarbazone], for which, in the experiment on U251 cells, the “percentage of cells in G1” value was “increased”. The “percentage of cells in G2/M” value in the experiment on U251 cells is reported as “decreased”. Moreover, the “Survival following 16 hours of Triapine exposure” value in experiment [1] (PSN1, 3 μM, drug alone) stood at 33%; in experiment [2] (U251, 5 μM, drug alone) it was 53%; in experiment [3] (DU145, 5 μM, drug alone) it was 68%. In addition, the “radiosensitization / DEF, Triapine after irradiation” value in experiment [1] (PSN1, Triapine for 16 hours after irradiation) was “DEFs similar to those obtained when cells were exposed prior to irradiation”; in experiment [2] (U251, Triapine for 16 hours after irradiation) it was “DEFs similar to those obtained when cells were exposed prior to irradiation”; in experiment [3] (DU145, Triapine for 16 hours after irradiation), “DEFs similar to those obtained when cells were exposed prior to irradiation”. Further, the “dose enhancement factor (DEF)” value in experiment [1] (PSN1, Triapine given prior to radiation, ratio of radiation dose for 10% survival) is on record as 1.64; in experiment [2] (U251, Triapine given prior to radiation, ratio of radiation dose for 10% survival) it was 1.50; in experiment [3] (DU145, Triapine given prior to radiation, ratio of radiation dose for 10% survival), 2.05. The growth delay turned out to be 1.6 days in the experiment with PSN1 tumors (Triapine alone, 40 mg/kg intraperitoneal, after 3 volumetric doublings of PSN1 tumors); 20.9 days in the experiment on PSN1 tumors (combination of Triapine (40 mg/kg, 6 hours prior) and single radiation dose (4 or 5 Gy), PSN1 tumors). For the same compound, the “DEF (in vivo)” value in the experiment on PSN1 tumors (combination of Triapine and radiation, PSN1 tumors) worked out at 2.0. Moreover, in the experiment on U251 tumors, the “growth delay / DEF effect of combination” value is given as “a similar effect was observed”. The DNA synthesis result in experiment [4] was “less than 5 % of control”. In experiment [4], the “time for DNA synthesis to return to control levels” value turned out to be 7 h.
